{"source": "PubChem BioAssay (NCI)", "test_in_all_cases": "inhibition of tumour cell growth, NCI panel, 384-well format", "key": {"[1]": {"system": "NCI-H23 lung"}, "[2]": {"system": "HT29 colon"}, "[3]": {"system": "SK-MEL-28 melanoma"}, "[4]": {"system": "COLO 205 colon"}, "[5]": {"system": "OVCAR-3 ovarian"}, "[6]": {"system": "OVCAR-4 ovarian"}, "[7]": {"system": "NCI-H322M lung"}, "[8]": {"system": "SK-OV-3 ovarian"}, "[9]": {"system": "UO-31 renal"}, "[10]": {"system": "MALME-3M melanoma"}, "[11]": {"system": "MDA-MB-231 breast"}, "[12]": {"system": "SN12C renal"}, "[13]": {"system": "IGROV1 ovarian"}, "[14]": {"system": "EKVX NSCLC"}, "[15]": {"system": "A498 renal"}, "[16]": {"system": "NCI-H522 lung"}, "[17]": {"system": "BT-549 breast"}, "[18]": {"system": "DU-145 prostate"}, "[19]": {"system": "M14 melanoma"}, "[20]": {"system": "SK-MEL-2 melanoma"}, "[21]": {"system": "786-0 renal"}, "[22]": {"system": "K-562 leukemia"}, "[23]": {"system": "A549 NSCLC"}, "[24]": {"system": "KM12 colon"}, "[25]": {"system": "T-47D breast"}, "[26]": {"system": "SNB-75 CNS"}, "[27]": {"system": "SNB-19 CNS"}, "[28]": {"system": "HCT-116 colon"}, "[29]": {"system": "HCT-15 colon"}}, "note": "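GI50 marks 50% less growth. TGI: total growth inhibition.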", "data": [{"smiles": "C[C@@H](Oc1ccc(Oc2cnc3ccc(Cl)cc3n2)cc1)C(=O)O", "values": [{"measurement": "GI50", "setting": "[1]", "result": "> 100", "unit": "µM"}, {"measurement": "TGI", "setting": "[1]", "result": "> 100", "unit": "µM"}, {"measurement": "GI50", "setting": "[2]", "result": "> 100", "unit": "µM"}, {"measurement": "TGI", "setting": "[2]", "result": "> 100", "unit": "µM"}, {"measurement": "GI50", "setting": "[3]", "result": "> 100", "unit": "µM"}, {"measurement": "TGI", "setting": "[3]", "result": "> 100", "unit": "µM"}, {"measurement": "GI50", "setting": "[4]", "result": 28.6, "unit": "µM"}, {"measurement": "TGI", "setting": "[4]", "result": "> 100", "unit": "µM"}, {"measurement": "GI50", "setting": "[5]", "result": "> 100", "unit": "µM"}, {"measurement": "TGI", "setting": "[5]", "result": "> 100", "unit": "µM"}, {"measurement": "GI50", "setting": "[6]", "result": "> 100", "unit": "µM"}, {"measurement": "TGI", "setting": "[6]", "result": "> 100", "unit": "µM"}, {"measurement": "GI50", "setting": "[7]", "result": "> 100", "unit": "µM"}, {"measurement": "TGI", "setting": "[7]", "result": "> 100", "unit": "µM"}, {"measurement": "GI50", "setting": "[8]", "result": "> 100", "unit": "µM"}, {"measurement": "TGI", "setting": "[8]", "result": "> 100", "unit": "µM"}, {"measurement": "GI50", "setting": "[9]", "result": 87.1, "unit": "µM"}, {"measurement": "TGI", "setting": "[9]", "result": "> 100", "unit": "µM"}, {"measurement": "GI50", "setting": "[10]", "result": "> 100", "unit": "µM"}, {"measurement": "TGI", "setting": "[10]", "result": "> 100", "unit": "µM"}, {"measurement": "GI50", "setting": "[11]", "result": "> 100", "unit": "µM"}, {"measurement": "TGI", "setting": "[11]", "result": "> 100", "unit": "µM"}, {"measurement": "GI50", "setting": "[12]", "result": "> 100", "unit": "µM"}, {"measurement": "TGI", "setting": "[12]", "result": "> 100", "unit": "µM"}, {"measurement": "GI50", "setting": "[13]", "result": 73.1, "unit": "µM"}, {"measurement": "TGI", "setting": "[13]", "result": "> 100", "unit": "µM"}, {"measurement": "GI50", "setting": "[14]", "result": "> 100", "unit": "µM"}, {"measurement": "TGI", "setting": "[14]", "result": "> 100", "unit": "µM"}, {"measurement": "GI50", "setting": "[15]", "result": 86.9, "unit": "µM"}, {"measurement": "TGI", "setting": "[15]", "result": "> 100", "unit": "µM"}, {"measurement": "GI50", "setting": "[16]", "result": 25.9, "unit": "µM"}, {"measurement": "TGI", "setting": "[16]", "result": "> 100", "unit": "µM"}, {"measurement": "GI50", "setting": "[17]", "result": 58.3, "unit": "µM"}, {"measurement": "TGI", "setting": "[17]", "result": "> 100", "unit": "µM"}, {"measurement": "GI50", "setting": "[18]", "result": 45.4, "unit": "µM"}, {"measurement": "TGI", "setting": "[18]", "result": "> 100", "unit": "µM"}, {"measurement": "GI50", "setting": "[19]", "result": "> 100", "unit": "µM"}, {"measurement": "TGI", "setting": "[19]", "result": "> 100", "unit": "µM"}, {"measurement": "GI50", "setting": "[20]", "result": "> 100", "unit": "µM"}, {"measurement": "TGI", "setting": "[20]", "result": "> 100", "unit": "µM"}, {"measurement": "GI50", "setting": "[21]", "result": "> 100", "unit": "µM"}, {"measurement": "TGI", "setting": "[21]", "result": "> 100", "unit": "µM"}, {"measurement": "GI50", "setting": "[22]", "result": 53.3, "unit": "µM"}, {"measurement": "TGI", "setting": "[22]", "result": "> 100", "unit": "µM"}, {"measurement": "GI50", "setting": "[23]", "result": 42.6, "unit": "µM"}, {"measurement": "TGI", "setting": "[23]", "result": "> 100", "unit": "µM"}, {"measurement": "GI50", "setting": "[24]", "result": "> 100", "unit": "µM"}, {"measurement": "TGI", "setting": "[24]", "result": "> 100", "unit": "µM"}, {"measurement": "GI50", "setting": "[25]", "result": "> 100", "unit": "µM"}, {"measurement": "TGI", "setting": "[25]", "result": "> 100", "unit": "µM"}, {"measurement": "GI50", "setting": "[26]", "result": "> 100", "unit": "µM"}, {"measurement": "TGI", "setting": "[26]", "result": "> 100", "unit": "µM"}, {"measurement": "GI50", "setting": "[27]", "result": "> 100", "unit": "µM"}, {"measurement": "TGI", "setting": "[27]", "result": "> 100", "unit": "µM"}, {"measurement": "GI50", "setting": "[28]", "result": 77.4, "unit": "µM"}, {"measurement": "TGI", "setting": "[28]", "result": "> 100", "unit": "µM"}, {"measurement": "GI50", "setting": "[29]", "result": 73.7, "unit": "µM"}, {"measurement": "TGI", "setting": "[29]", "result": "> 100", "unit": "µM"}]}]}
